From US6673902B2, “Cyclin D binding factor, and uses thereof” (St. Jude Children's Research Hospital, priority 1996, dated 2004)

What was measured:
p19ARF = experiment: Induction of endogenous p19ARF protein in retrovirus-infected MEFs; format: cell-based, mouse
Description: Virus production and infection. Human kidney 293T cells were transfected with a helper ecotropic retrovirus plasmid defective in psi-2 packaging sequences, together with pSRα vectors containing murine DMP1, human c-Myc, human E2F-1, or human Ets1 cDNAs [Zindy, et al., Genes Dev. 12:2424-2433 (1998); Inoue and Sherr, J. Biol. Chem. 273:29188-29194 (1998)]. Viruses were harvested every 6 hours 24-72 hours after transfection, filtered and stored at 4° C. until used for infection [Zindy, et al., Genes Dev. 12:2424-2433 (1998)]. In order to construct a retroviral vector containing DMP1 linked to a mutated tamoxifen-responsive element of the estrogen receptor (DMP1-ER™), a 3′ 0.3 kb EcoNI DNA fragment of murine DMP1 cDNA was amplified by PCR using
RNA and protein expression. Quantitative RT-PCRs employed specific primers for murine ARF exon 1β (30 cycles) and for β-actin (20 cycles) used as a control [Zindy et al., Oncogene 15:203-211 (1997)]. […]
(§1) Based on the above observations, it was determined as to whether introduction of DMP1 would induce synthesis of the endogenous ARF protein in normal diploid fibroblast strains. […] Although the blot was normalized for protein input, the levels of p19^ARF induced by DMP1 were calculated to be 2-fold higher than those induced by Myc, because fewer cells were productively infected with the DMP1 virus in this experiment (see FIG. 15A).

[1] = tested on: BS2-driven reporter plasmid; experiment: Transactivation of BS2-driven luciferase reporter in 293T cells; format: cell-based, human; details: 1 μg BS2-driven reporter
Text: An XbaI-EcoRV fragment containing the entire DMP1 coding sequence is subcloned by blunt end ligation into a SpeI-XbaI fragment of the Rc/RSV vector (Invitrogen, La Jolla Calif.) to enable DMP1 expression in mammalian cells. 6×concatamerized BS1, 8×concatamerized, BS2, or 7×concatamerized M3 oligonucleotides (FIG. 5B) are inserted into the XhoI-SmaI sites of pGL2 (Pfornega) 5′ to a minimal simian virus 40 (SV40) early promoter driving firefly luciferase gene expression. The latter “reporter” plasmid (1 μg) together with increasing amounts of pRc/RSV-DMP1 expression plasmid compensated by decreasing quantities of control pRc/RSV DNA (total of both=2.5 μg) were transfected into 293T cells (1.5×10^6 cells per 60 mm diameter culture dish) by calcium phosphate precipitation (7). Two days later, cells were harvested, washed three times with PBS, and lysed in 1 ml of 25 mM glycylglycine (Sigma), pH 7.8, 15 mM MgSO4, 4 mM EDTA, 1 mM DTT, and 1% Triton X-100. After clearing by centrifugation, 50 μl aliquots were assayed diluted to 350 μl using 15 mM potassium phosphate buffer, pH 7.8, containing 15 mM MgSO4, 4 mM EGTA, 2 mM ATP, 1 mM DTT, and 67 uM luciferin (Sigma). Total light emission was measured for duplicate samples during the initial 20 seconds after luciferin injection with an Optocomp I luminometer (MGM Instruments, Hamden Conn.). […]

wild-type MEFs = experiment: BrdU incorporation / cell cycle arrest in wild-type MEFs; format: cell-based, mouse; details: retroviral infection
Description: BrdU incorporation and immunofluorescence. Wild-type or ARF-null MEFs (4×10^4 cells) were seeded on gelatin-coated coverslips 16 hours before virus infection. Cells were infected three times with empty vector, or vectors expressing murine DMP1, human c-Myc, human E2F-1, or human Ets1. Cells were labeled 36 hours after virus infection with bromodeoxyuridine (BrdU, Sigma) for 14 hours in complete medium. For pulse labeling, MEFs were treated with 2 μM4-HT for 36 hours and labeled with BrdU for three hours at different intervals throughout the inductive phase. Cells were fixed in ice-cold methanol-acetone (1:1) for 10 min at −20° C. and then were stained with affinity-purified antibodies to DMP1 (AF) [Hirai and Sherr, Mol. Cell. […]
as §1

## DMP1: murine cyclin D-associated myb-like transcription factor, 761 amino acids, SEQ ID NO:1
p19ARF; corrected for fraction of productively infected cells
  levels of p19ARF induced relative to those induced by Myc: 2 fold
p19ARF; early passage MEFs, retroviral infection
  ARF protein synthesis: induced ARF protein synthesis
[1]
  transactivation of luciferase activity relative to reporter plasmid alone: ~20 fold
wild-type MEFs
  cell cycle arrest: underwent cell cycle arrest
